Laboratory results taken from PubChem BioAssay (NCI).
“And” between values parts separate entries of the source, which are not always exact repeats. Identical values can stand only once.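 Tested at 5 concentrations; 48 h exposure; 96-well plates; endpoints linearly interpolated, else capped at highest concentration. GI50: concentration for 50% inhibition of growth. TGI marks complete inhibition of growth.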

Columns and labels:
Test in all cases: DTP human tumour cell line panel, 48 h
A498 renal = tested on: A498 renal
OVCAR-4 ovarian = tested on: OVCAR-4 ovarian
KM20L2 colon = tested on: KM20L2 colon
OVCAR-5 ovarian = tested on: OVCAR-5 ovarian
UO-31 renal = tested on: UO-31 renal
U251 CNS = tested on: U251 CNS
XF 498 CNS = tested on: XF 498 CNS
SK-MEL-5 melanoma = tested on: SK-MEL-5 melanoma
MDA-MB-231 breast = tested on: MDA-MB-231 breast
BT-549 breast = tested on: BT-549 breast
MDA-N = tested on: MDA-N

SMILES | TGI (A498 renal) [µM] | GI50 (OVCAR-4 ovarian) | TGI (KM20L2 colon) | TGI (OVCAR-5 ovarian) [µM] | GI50 (UO-31 renal) | TGI (UO-31 renal) | GI50 (U251 CNS) | TGI (U251 CNS) | GI50 (XF 498 CNS) | TGI (XF 498 CNS) | GI50 (SK-MEL-5 melanoma) | TGI (SK-MEL-5 melanoma) | TGI (OVCAR-4 ovarian) [µM] | TGI (MDA-MB-231 breast) [µM] | TGI (BT-549 breast) [µM] | TGI (MDA-N) [µM]
COc1cc(C2c3cc4c(cc3[C@@H](NC3CCN(Cc5ccccc5)CC3)C3COC(=O)[C@H]23)OCO4)cc(OC)c1O (stereo partly drawn) | 0.498 | 0.209 µM and 1.12 µM | 3.28 µM and 0.841 µM | 1.51 | 0.214 µM and 0.0879 µM | 1.11 µM and 0.275 µM | 0.115 µM and 0.026 µM | 0.594 µM and 0.183 µM | 0.377 µM and 0.132 µM | 2.34 µM and 1.4 µM | 0.206 µM and 0.0739 µM | 1.4 µM and 0.373 µM | – | – | – | –
CCC(=O)OCOc1ccc(/C=C2\CCC(CN(C)C)C2=O)cc1 (stereo not drawn) | 30.6 | – | 32.6 µM | 31.6 | – | 19 µM | – | 26.2 µM | – | 4.15 µM | – | 26.6 µM | 15.3 | > 19.9 | 13.6 | 16.5
OC1OCC(COc2cc(Cl)c(Cl)cc2Cl)OC1O (stereo not drawn) | > 100 | – | > 100 µM | > 100 | – | > 100 µM | – | > 100 µM | – | – | – | > 100 µM | > 100 | – | – | –
C=CC1=C(C)C(/C=c2\[nH]/c(=C/c3[nH]c(CC4NC(=O)C(C)/C4=C\C)c(C)c3CCC(=O)O)c(CC(=O)O)c2C)=NC1=O (stereo not drawn) | – | – | > 100 µM | > 100 | – | > 100 µM | – | > 100 µM | – | > 100 µM | – | – | > 100 | – | – | –
CC1(C)CC(=O)C(CC2C(=O)CCCC2=O)C(=O)C1 | > 100 | – | > 100 µM | > 100 | – | > 100 µM | – | > 100 µM | – | > 100 µM | – | > 100 µM | > 100 | – | – | –
O=C1c2ccccc2C(=O)N1CC#CCO | > 100 | – | – | > 100 | – | > 100 µM | – | > 100 µM | – | > 100 µM | – | > 100 µM | > 100 | – | – | –
Cc1cc(-c2ccccc2)nc(Nc2cc3ccccc3[nH]2)n1 | > 100 | – | > 100 µM | > 100 | – | > 100 µM | – | > 100 µM | – | > 100 µM | – | > 100 µM | > 100 | – | – | –
COc1cc2c(cc1OC)C(Cl)C(c1ccc(Br)cc1)=C2Cl (stereo not drawn) | 33.1 | – | 41.3 µM | 31 | – | 17.1 µM | – | 24.8 µM | – | – | – | 28.6 µM | 63.5 | 21.6 | 5.44 | 13.6
C=CCC1(CN(C)C)CC/C(=C\c2ccc3c(c2)OCO3)C1=O (stereo not drawn) | > 100 | – | > 100 µM | > 100 | – | > 100 µM | – | > 100 µM | – | – | – | 60.5 µM | > 100 | – | – | –
CC1=C(CCC(C)CO)O[C@H]2C[C@H]3[C@@H]4CC[C@H]5C[C@@H](O)CC[C@]5(C)[C@H]4CC(=O)[C@]3(C)[C@@H]12 (stereo partly drawn) | 44 | – | – | 71.1 | – | 33.3 µM | – | 37.8 µM | – | – | – | 23.5 µM | > 82.2 | 47.3 | 58.4 | 45.4
CCC(O)CCCCCCCCCCCCCCC(=O)O (stereo not drawn) | > 100 | – | – | > 100 | – | > 100 µM | – | > 100 µM | – | > 100 µM | – | 40.6 µM | > 100 | – | – | –
COc1cc2[nH]c3c(c2cc1OC)CCN[C@@]31CC[C@@]2(CC3c4c(cc(OC)c(O)c42)CCN3C)C[C@@H]1OC (stereo partly drawn) | > 96.9 | – | 86.3 µM | > 100 | – | 57.8 µM | – | > 91.4 µM | – | 32.4 µM | – | 30.3 µM | > 100 | > 100 | > 71.3 | 35.9
